Test results taken from patent US7157487B2, “Vla-4 inhibitors” (Daiichi Pharmaceutical Co., Ltd., priority 2000, dated 2007).
pKi: −log10 of the molar value.

Biological target: T1, integrins haα4 and β1 (VLA-4) expressed on CHO cells (Homo sapiens, UniProt P05556+P13612)
T1 construct: expressed in transfected cells; host or cells: CHO cells
Test: In vitro Evaluation Test (1): binding of Eu3+-hVCAM-1 D1D7-IgG to CHO cells expressing integrins α4 and β1
Settings: inhibition of Eu3+-hVCAM-1 D1D7-IgG binding to CHO cells expressing α4β1; Ki calculated from IC50
Protocol: CHO cells forcedly expressed by the transduction of integrins haα4 and β1 were seeded in a Coster 3599 plate (3×10^4 cells/100 μl/well) and they were cultured for 2 days. After the medium was washed with buffer A* twice, 50 μl/well of Eu^3+-hVCAM-1 D1D7-IgG diluted to […] with an assay buffer ** was added. To the resulting well was added 50 μl/well of a test compound diluted with 2% DMS0-assay buffer (in the presence or absence of 6% human serum albumin) (to a well subjected to Scatchard analysis was added a solution diluted in another manner). After stirring for 5 minutes on a plate mixer, the plate was allowed to stand at room temperature for 1 hour. Then, the plate was washed four times with the buffer A and added with 100 μl/well of an enhancement reagent (DELFIA). The plate was shaken for 5 minutes on a plate mixer, followed by measurement of fluorescence intensity by a time-resolved fluorometer (DELFIA Wallac). From the binding ratio available by the following calculation formula: ((FT−FNS)−(FI−FNS))/(FT−FNS)×100, the IC50 (concentration inhibiting 50% of binding of CHO cells with hVCAM-1 D1D7-IgG) of the test compound was determined. In the above formula, FT means the fluorescence intensity of the well free of the test compound, FNS means the fluorescence intensity of the well free of the test compound and anti-hα4 antibody (SG/73), and FI means the fluorescence intensity of the well containing the test compound. The Kd indicating the binding strength and Bmax (maximum binding) were estimated within a range of 0.06 to 20 nM in accordance with the Scatchard analysis method.
The value Ki was calculated based on:
[formula] ((L) means a ligand concentration). (* buffer A: 25 mM HEPES (pH 7.5), 150 mM NaCl, 1 mM Ca^2+, 1 MM Mg^2+, 4 mM Mn^2+; ** assay buffer: 25 mM HEPES (pH 7.5), 150 mM NaCl, 1 mM Ca^2+, 1 mM Mg^2+, 4 mM Mn^2+, 0.1% BSA, 20 μM DTPA, with/without 6% ALBUMIN, HUMAN SERUM (C/N A-1653, SIGMA)) In vitro Evaluation Test (2)

T1 sequence (P13612 34-1032): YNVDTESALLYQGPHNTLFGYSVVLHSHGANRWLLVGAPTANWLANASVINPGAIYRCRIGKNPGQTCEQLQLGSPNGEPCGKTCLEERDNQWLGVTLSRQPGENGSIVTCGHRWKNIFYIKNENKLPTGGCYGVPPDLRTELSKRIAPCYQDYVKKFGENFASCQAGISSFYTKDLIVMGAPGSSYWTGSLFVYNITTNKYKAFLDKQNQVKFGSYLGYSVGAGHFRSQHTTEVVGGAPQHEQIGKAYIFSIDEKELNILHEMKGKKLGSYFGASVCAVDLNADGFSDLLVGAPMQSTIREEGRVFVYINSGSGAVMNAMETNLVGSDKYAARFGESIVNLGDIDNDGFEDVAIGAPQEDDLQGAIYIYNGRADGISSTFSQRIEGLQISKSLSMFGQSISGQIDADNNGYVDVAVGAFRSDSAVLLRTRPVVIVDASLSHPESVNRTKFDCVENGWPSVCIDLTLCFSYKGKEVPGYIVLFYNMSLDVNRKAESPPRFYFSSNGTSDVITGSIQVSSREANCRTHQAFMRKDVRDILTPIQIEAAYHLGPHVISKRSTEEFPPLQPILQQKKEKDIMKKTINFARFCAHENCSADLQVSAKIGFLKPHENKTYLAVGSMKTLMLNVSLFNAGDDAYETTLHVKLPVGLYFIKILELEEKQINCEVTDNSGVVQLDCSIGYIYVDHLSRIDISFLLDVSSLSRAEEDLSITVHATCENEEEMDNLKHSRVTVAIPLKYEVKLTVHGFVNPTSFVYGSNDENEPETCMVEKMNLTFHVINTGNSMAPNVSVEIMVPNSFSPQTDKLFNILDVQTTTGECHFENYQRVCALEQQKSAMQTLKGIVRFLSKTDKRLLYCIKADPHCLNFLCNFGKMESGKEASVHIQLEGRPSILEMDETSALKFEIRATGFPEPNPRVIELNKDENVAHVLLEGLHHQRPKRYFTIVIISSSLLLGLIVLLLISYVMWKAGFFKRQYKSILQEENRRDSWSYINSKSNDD
T1 sequence (P05556 21-798): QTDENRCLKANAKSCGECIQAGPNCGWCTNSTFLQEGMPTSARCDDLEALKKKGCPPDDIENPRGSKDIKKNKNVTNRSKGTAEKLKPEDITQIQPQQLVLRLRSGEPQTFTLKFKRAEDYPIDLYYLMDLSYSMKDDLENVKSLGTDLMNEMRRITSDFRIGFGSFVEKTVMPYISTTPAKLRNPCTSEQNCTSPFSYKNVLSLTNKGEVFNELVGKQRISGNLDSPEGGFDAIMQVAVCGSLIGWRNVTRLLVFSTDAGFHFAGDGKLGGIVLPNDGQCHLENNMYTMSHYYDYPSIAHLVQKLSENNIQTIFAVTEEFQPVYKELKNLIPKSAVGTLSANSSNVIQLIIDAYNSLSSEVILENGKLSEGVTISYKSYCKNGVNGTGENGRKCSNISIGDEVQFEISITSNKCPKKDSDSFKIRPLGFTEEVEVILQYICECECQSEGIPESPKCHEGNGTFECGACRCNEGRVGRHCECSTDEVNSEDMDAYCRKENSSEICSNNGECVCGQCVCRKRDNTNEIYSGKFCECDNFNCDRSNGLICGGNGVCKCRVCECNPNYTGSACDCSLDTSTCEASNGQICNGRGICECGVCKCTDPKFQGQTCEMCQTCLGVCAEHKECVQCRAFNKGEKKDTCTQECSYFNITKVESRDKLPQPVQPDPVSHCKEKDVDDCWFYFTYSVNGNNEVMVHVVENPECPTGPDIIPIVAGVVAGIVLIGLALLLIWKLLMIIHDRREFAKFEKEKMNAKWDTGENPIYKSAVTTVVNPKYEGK

| SMILES | pKi |
| --- | --- |
| O=C(Cc1ccc(Nc2nc3cccc(F)c3o2)c(Cl)c1)N1C[C@@H](F)C[C@H]1CO[C@H]1CC[C@H](C(=O)O)CC1 [Example 53, trans-4-(1-(3-Chloro-4-(2-(7-fluorobenzoxazolyl))aminophenylacetyl)-(4S)-fluoro-(2S)-pyrrolidinylmethoxy)cyclohexanecarboxylic acid] | 7.49 |
| O=C(Cc1ccc(Nc2nc3ccc(Cl)cc3s2)c(Cl)c1)N1C[C@@H](F)C[C@H]1CO[C@H]1CC[C@H](C(=O)O)CC1 [Example 59, trans-4-(1-(4-(6-Chloro-2-benzothiazolyl)amino-3-chlorophenylacetyl)-(4S)-fluoro-(2S)-pyrrolidinylmethoxy)cyclohexanecarboxylic acid] | 8.14 |
| O=C(Nc1ccc(CC(=O)N2C[C@@H](F)C[C@H]2CO[C@H]2CC[C@H](C(=O)O)CC2)cc1Br)c1c[nH]c2ccccc12 [Example 64, trans-4-(1-((3-Bromo-4-((3-indolylcarbonyl)amino)phenyl)acetyl)-(4S)-fluoro-(2S)-pyrrolidinylmethoxy)cyclohexanecarboxylic acid] | 9.51 |
| Cn1cc(C(=O)Nc2cc(F)c(CC(=O)N3C[C@@H](F)C[C@H]3CO[C@H]3CC[C@H](C(=O)O)CC3)cc2Cl)c2ccc(F)cc21 [Example 73, trans-4-(1-((5-Chloro-2-fluoro-4-((6-fluoro-1-methyl-3-indolylcarbonyl)amino)phenyl)acetyl)-(4S)-fluoro-(2S)-pyrrolidinylmethoxy)cyclohexanecarboxylic acid] | 7.29 |
| Cn1cc(C(=O)Nc2cc(F)c(CC(=O)N3C[C@@H](F)C[C@H]3CO[C@H]3CC[C@H](C(=O)O)CC3)cc2Cl)c2c(F)cccc21 [Example 75, trans-4-(1-((5-Chloro-2-fluoro-4-((4-fluoro-1-methyl-3-indolylcarbonyl)amino)phenyl)acetyl)-(4S)-fluoro-(2S)-pyrrolidinylmethoxy)cyclohexanecarboxylic acid] | 7.68 |
| COc1cc(CC(=O)N2C[C@@H](F)C[C@H]2CO[C@H]2CC[C@H](C(=O)O)CC2)c(F)cc1NC(=O)c1cn(C)c2ccccc12 [Example 76, trans-4-((4S)-Fluoro-1-(2-fluoro-5-methoxy-4-((1-methyl-1H-3-indolylcarbonyl)amino)phenylacetyl)-(2S)-pyrrolidinylmethoxy)cyclohexanecarboxylic acid] | 8.80 |
| COc1cc(CC(=O)N2C[C@@H](F)C[C@H]2CO[C@H]2CC[C@H](C(=O)O)CC2)ccc1NC(=O)c1cc2ccccc2[nH]1 [Example 78, trans-4-(1-((4-((2-Indolylcarbonyl)amino)-3-methoxyphenyl)acetyl)-(4S)-fluoro-(2S)-pyrrolidinylmethoxy)cyclohexanecarboxylic acid] | 7.85 |
| O=C(Nc1ccc(CC(=O)N2C[C@@H](F)C[C@H]2CO[C@H]2CC[C@H](C(=O)O)CC2)cc1Cl)c1nccc2ccccc12 [Example 80, trans-4-(1-((3-Chloro-4-((1-isoquinolinylcarbonyl)amino)phenyl)acetyl)-(4S)-fluoro-(2S)-pyrrolidinylmethoxy)cyclohexanecarboxylic acid] | 7.92 |
| O=C(Nc1ccc(CC(=O)N2C[C@@H](F)C[C@H]2CO[C@H]2CC[C@H](C(=O)O)CC2)cc1Cl)c1nccc2ccc(F)cc12 [Example 82, trans-4-(1-((3-Chloro-4-((7-fluoro-1-isoquinolinylcarbonyl)amino)phenyl)acetyl)-(4S)-fluoro-(2S)-pyrrolidinylmethoxy)cyclohexanecarboxylic acid] | 7.74 |
| O=C(Nc1cc(F)c(CC(=O)N2C[C@@H](F)C[C@H]2CO[C@H]2CC[C@H](C(=O)O)CC2)cc1Cl)c1nsc2ccccc12 [Example 85, trans-4-(1-(5-Chloro-2-fluoro-(4-((3-benzo(d)isothiazolylcarbonyl)amino)phenyl)acetyl)-(4S)-fluoro-(2S)-pyrrolidinylmethoxy)cyclohexanecarboxylic acid] | 8.19 |
| O=C(Cc1ccc2nc(-c3cccc4ccccc34)oc2c1)N1C[C@@H](F)C[C@H]1CO[C@H]1CC[C@H](C(=O)O)CC1 [Example 95, trans-4-(1-(2-(1-Naphthyl)-6-benzoxazolylacetyl)-(4S)-fluoro-(2S)-pyrrolidinylmethoxy)cyclohexanecarboxylic acid] | 7.47 |
| O=C(Cc1ccc2nc(N3CCc4ccccc43)oc2c1F)N1C[C@@H](F)C[C@H]1CO[C@H]1CC[C@H](C(=O)O)CC1 [Example 105, trans-4-(1-((7-fluoro-2-(1-indolinyl)-6-benzoxazolyl)acetyl)-(4S)-fluoro-(2S)-pyrrolidinylmethoxy)cyclohexanecarboxylic acid] | 7.38 |
| Cn1cc(C(=O)Nc2cc(F)c(CC(=O)N3C[C@@H](F)C[C@H]3CN[C@H]3CC[C@H](C(=O)O)CC3)cc2Cl)c2ccccc21 [Example 107, trans-4-(N-(1-((5-Chloro-2-fluoro-4-((1-methyl-3-indolylcarbonyl)amino)phenyl)acetyl)-(4S)-fluoro-(2S)-pyrrolidinylmethyl)amino)cyclohexanecarboxylic acid] | 7.96 |

Further compounds by rising pKi, results first:

| pKi | SMILES |
| --- | --- |
| 7.33 | O=C(Cc1ccc2nc(-c3nccc4ccccc34)oc2c1)N1C[C@@H](F)C[C@H]1CO[C@H]1CC[C@H](C(=O)O)CC1 [Example 102, trans-4-(1-(2-(1-Isoquinolinyl)-6-benzoxazolylacetyl)-(4S)-fluoro-(2S)-pyrrolidinylmethoxy)cyclohexanecarboxylic acid] |
| 7.47 | Cn1cc(C(=O)Nc2ccc(CC(=O)N3C[C@@H](F)C[C@H]3CO[C@H]3CC[C@H](C(=O)O)CC3)nc2Cl)c2ccccc21 [Example 69, trans-4-(1-(2-Chloro-3-((1-methyl-3-indolylcarbonyl)amino)-6-pyridyl)acetyl)-(4S)-fluoro-(2S)-cyclohexanecarboxylic acid] |
| 7.60 | O=C(Nc1cc(F)c(CC(=O)N2C[C@@H](F)C[C@H]2CO[C@H]2CC[C@H](C(=O)O)CC2)cc1Cl)c1nccc2ccccc12 [Example 81, trans-4-(1-((5-Chloro-2-fluoro-4-((1-isoquinolinylcarbonyl)amino)phenyl)acetyl)-(4S)-fluoro-(2S)-pyrrolidinylmethoxy)cyclohexanecarboxylic acid] |
| 7.70 | Cn1cc(-c2nc3ccc(CC(=O)N4C[C@@H](F)C[C@H]4CO[C@H]4CC[C@H](C(=O)O)CC4)cc3o2)c2cc(Cl)ccc21 [Example 96, trans-4-(1-((2-(5-Chloro-1-methyl-3-indolyl)-6-benzoxazolyl)acetyl)-(4S)-fluoro-(2S)-pyrrolidinylmethoxy)cyclohexanecarboxylic acid] |
| 7.70 | O=C(Cc1ccc2nc(N3CCc4ccccc43)oc2c1)N1C[C@@H](F)C[C@H]1CO[C@H]1CC[C@H](C(=O)O)CC1 [Example 104] |
| 7.77 | Cn1cc(-c2nc3ccc(CC(=O)N4C[C@@H](F)C[C@H]4CO[C@H]4CC[C@H](C(=O)O)CC4)cc3o2)c2ccc(F)cc21 [Example 99, trans-4-(1-((2-(6-Fluoro-1-methyl-3-indolyl)-6-benzoxazolyl)acetyl)-(4S)-fluoro-(2S)-pyrrolidinylmethoxy)cyclohexanecarboxylic acid] |
| 8.14 | O=C(Cc1ccc(Nc2nc3ccc(F)cc3s2)c(Cl)c1)N1C[C@@H](F)C[C@H]1CO[C@H]1CC[C@H](C(=O)O)CC1 [Example 57, trans-4-(1-(3-Chloro-4-(6-fluoro-2-benzothiazolyl)aminophenylacetyl)-(4S)-fluoro-(2S)-pyrrolidinylmethoxy)cyclohexanecarboxylic acid] |
| 8.20 | O=C(Cc1ccc(Nc2nc3c(Cl)cccc3s2)c(Cl)c1)N1C[C@@H](F)C[C@H]1CO[C@H]1CC[C@H](C(=O)O)CC1 [Example 60, trans-4-(1-(4-(4-Chloro-2-benzothiazolyl)amino-3-chlorophenylacetyl)-(4S)-fluoro-(2S)-pyrrolidinylmethoxy)cyclohexanecarboxylic acid] |
| 8.25 | O=C(Cc1ccc(Nc2nc3cc(F)ccc3o2)c(Cl)c1)N1C[C@@H](F)C[C@H]1CO[C@H]1CC[C@H](C(=O)O)CC1 [Example 54, trans-4-(1-(3-Chloro-4-(2-(5-fluorobenzoxazolyl))aminophenylacetyl)-(4S)-fluoro-(2S)-pyrrolidinylmethoxy)cyclohexanecarboxylic acid] |
| 8.68 | O=C(Cc1ccc(Nc2nc3ccccc3s2)c(Cl)c1)N1C[C@@H](F)C[C@H]1CO[C@H]1CC[C@H](C(=O)O)CC1 [Example 56, trans-4-(1-(4-(2-Benzothiazolyl)amino-3-chlorophenylacetyl)-(4S)-fluoro-(2S)-pyrrolidinylmethoxy)cyclohexanecarboxylic acid] |
